Like-named read-outs stand apart in the source and are kept apart here.
Target: T1, F508del (Homo sapiens, UniProt P13569, DEL508-508)
T1 construct: expressed in transfected cells
Assay: Protocol 2: FRET membrane potential optical assay (VIPR), identification of correction compounds
Format: cell-based
In short: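 FRET read-out (CC2-DMPE donor, DiSBAC2(3) voltage-sensitive acceptor) of membrane depolarization on VIPR II. Corrector candidates incubated 16 hrs at 37° C. with NIH3T3 cells expressing F508del; temperature correction at 27° C. as positive control; stimulation by 10 μM forskolin, 20 μM genistein, chloride-free gluconate bath.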

[1] = Table 3, compounds of Table 1 as modulators of CFTR activity, protocol not stated
[2] = F508del CFTR modulator activity, compounds of Table 1, read-out: EC30

T1 sequence (P13569 with tags, fused parts or gaps DEL508-508): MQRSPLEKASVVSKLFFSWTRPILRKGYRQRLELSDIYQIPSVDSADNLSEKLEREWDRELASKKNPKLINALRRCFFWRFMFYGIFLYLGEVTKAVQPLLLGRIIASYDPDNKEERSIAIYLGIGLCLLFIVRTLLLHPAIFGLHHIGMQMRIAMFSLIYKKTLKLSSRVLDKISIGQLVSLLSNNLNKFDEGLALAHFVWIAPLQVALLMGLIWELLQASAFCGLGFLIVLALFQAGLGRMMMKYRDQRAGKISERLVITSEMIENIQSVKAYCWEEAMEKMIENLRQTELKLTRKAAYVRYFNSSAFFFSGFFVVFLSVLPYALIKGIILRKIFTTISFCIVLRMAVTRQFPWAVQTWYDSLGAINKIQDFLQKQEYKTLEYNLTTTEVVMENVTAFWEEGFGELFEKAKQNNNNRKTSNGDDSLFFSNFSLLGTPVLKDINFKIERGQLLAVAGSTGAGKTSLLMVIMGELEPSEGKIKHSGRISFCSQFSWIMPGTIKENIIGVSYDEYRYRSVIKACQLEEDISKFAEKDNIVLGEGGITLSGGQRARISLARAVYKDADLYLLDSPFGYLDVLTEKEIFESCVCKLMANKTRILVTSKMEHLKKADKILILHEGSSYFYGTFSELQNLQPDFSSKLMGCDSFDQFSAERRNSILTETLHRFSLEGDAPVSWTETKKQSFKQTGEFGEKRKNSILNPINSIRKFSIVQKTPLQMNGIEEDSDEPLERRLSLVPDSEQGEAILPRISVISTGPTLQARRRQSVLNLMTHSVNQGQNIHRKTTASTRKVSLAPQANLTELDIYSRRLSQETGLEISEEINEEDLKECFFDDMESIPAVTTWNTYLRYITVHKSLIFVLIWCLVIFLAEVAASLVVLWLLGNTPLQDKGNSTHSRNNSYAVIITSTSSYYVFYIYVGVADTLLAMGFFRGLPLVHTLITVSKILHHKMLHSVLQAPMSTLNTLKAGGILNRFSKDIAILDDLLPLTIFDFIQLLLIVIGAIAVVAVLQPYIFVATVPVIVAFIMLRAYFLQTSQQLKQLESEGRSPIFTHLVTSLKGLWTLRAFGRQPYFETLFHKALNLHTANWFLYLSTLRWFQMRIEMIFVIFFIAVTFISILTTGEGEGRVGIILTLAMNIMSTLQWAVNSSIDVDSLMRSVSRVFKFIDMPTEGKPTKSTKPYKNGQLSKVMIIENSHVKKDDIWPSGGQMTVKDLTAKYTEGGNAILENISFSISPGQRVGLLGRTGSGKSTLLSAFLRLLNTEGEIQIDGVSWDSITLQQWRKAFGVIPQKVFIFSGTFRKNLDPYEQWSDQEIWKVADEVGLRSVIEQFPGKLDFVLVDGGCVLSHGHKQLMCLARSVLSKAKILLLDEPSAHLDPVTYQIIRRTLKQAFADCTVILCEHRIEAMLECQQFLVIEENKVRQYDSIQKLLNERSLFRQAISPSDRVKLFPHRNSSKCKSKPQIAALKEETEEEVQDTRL

EC30 [1]	EC30 [2] [nM]	SMILES
++ (“++” means between 3 uM and 10 uM)		CC(C)(C)c1ccc(C(=O)NS(=O)(=O)c2cccc(N)n2)c(OC2CCCCC2)n1 [Compound 649, N-[(6-amino-2-pyridyl)sulfonyl]-6-tert-butyl-2-(cyclohexoxy)pyridine-3-carboxamide]
	< 3000	COc1ccc(F)c(-c2ccc(C(=O)NS(=O)(=O)c3ccc[nH]c3=O)c(N3C[C@@H](C)CC3(C)C)n2)c1 [Compound 2606, 6-(2-fluoro-5-methoxy-phenyl)-N-[(2-oxo-1H-pyridin-3-yl)sulfonyl]-2-[(4S)-2,2,4-trimethylpyrrolidin-1-yl]pyridine-3-carboxamide]
	< 3000	CC1CN(c2ncccc2C(=O)NS(=O)(=O)c2cccc(OCc3ccc(Cl)cc3)n2)C(C)(C)C1 (stereo not shown) [Compound 2585, N—[[6-[(4-chlorophenyl)methoxy]-2-pyridyl]sulfonyl]-2-(2,2,4-trimethylpyrrolidin-1-yl)pyridine-3-carboxamide]
+++ (“+++” means <3 uM)		Cc1cc(C)c(Oc2nc(-c3ccc(Cl)cc3F)ccc2C(=O)NS(=O)(=O)c2cccc(N)n2)c(C)c1 [Compound 207, N-[(6-amino-2-pyridyl)sulfonyl]-6-(4-chloro-2-fluoro-phenyl)-2-(2,4,6-trimethylphenoxy)pyridine-3-carboxamide]
	3000 to 10000	CC1CN(c2ncccc2C(=O)NS(=O)(=O)c2cccc(N3CCC(F)(F)C3)n2)C(C)(C)C1 (stereo not shown) [Compound 2166, N—[[6-(3,3-difluoropyrrolidin-1-yl)-2-pyridyl]sulfonyl]-2-(2,2,4-trimethylpyrrolidin-1-yl)pyridine-3-carboxamide]
+++ (“+++” means <3 uM)		CCC(c1ccccc1)n1nc(C(C)(C)C)cc1C(=O)NS(=O)(=O)c1cccc(N)c1 (stereo not shown) [Compound 165, N-(3-aminophenyl)sulfonyl-5-tert-butyl-2-(1-phenylpropyl)pyrazole-3-carboxamide]
	< 3000	Cc1nc2cc(Nc3cccc(S(=O)(=O)NC(=O)c4cccnc4N4CC(C)CC4(C)C)n3)ccc2s1 (stereo not shown) [Compound 2198, N—[[6-[(2-methyl-1,3-benzothiazol-5-yl)amino]-2-pyridyl]sulfonyl]-2-(2,2,4-trimethylpyrrolidin-1-yl)pyridine-3-carboxamide]
++ (“++” means between 3 uM and 10 uM)		CC(C)Oc1cc(F)cc(-c2ccc(C(=O)NS(=O)(=O)c3ccc[nH]c3=O)c(N3[C@H](C)CC[C@@H]3C)n2)c1 [Compound 487, 2-[(2S,5R)-2,5-dimethylpyrrolidin-1-yl]-6-(3-fluoro-5-isopropoxy-phenyl)-N-[(2-oxo-1H-pyridin-3-yl)sulfonyl]pyridine-3-carboxamide]
+++ (“+++” means <3 uM)		COc1ncc(-c2ccc(C(=O)NS(=O)(=O)c3cccc(N)n3)c(Oc3c(C)cc(C)cc3C)n2)cc1F [Compound 612, N-[(6-amino-2-pyridyl)sulfonyl]-6-(5-fluoro-6-methoxy-3-pyridyl)-2-(2,4,6-trimethylphenoxy)pyridine-3-carboxamide]
	< 3000	Cc1cc(-c2ccc(C(=O)NS(=O)(=O)c3cccc(N)n3)c(N3C[C@@H](C)CC3(C)C)n2)ccc1OC(F)F [Compound 2543, N-[(6-amino-2-pyridyl)sulfonyl]-6-[4-(difluoromethoxy)-3-methyl-phenyl]-2-[(4S)-2,2,4-trimethylpyrrolidin-1-yl]pyridine-3-carboxamide]
	< 3000	COc1cc(C)c(-c2ccc(C(=O)NS(=O)(=O)c3ccc[nH]c3=O)c(N3C[C@@H](C)CC3(C)C)n2)c(C)c1 [Compound 2575, 6-(4-methoxy-2,6-dimethyl-phenyl)-N-[(2-oxo-1H-pyridin-3-yl)sulfonyl]-2-[(4S)-2,2,4-trimethylpyrrolidin-1-yl]pyridine-3-carboxamide]
	3000 to 10000	C[C@@H]1CN(c2nc(-c3cccc4c3OCC4)ccc2C(=O)NS(=O)(=O)c2ccc[nH]c2=O)C(C)(C)C1 [Compound 2583, 6-(2,3-dihydrobenzofuran-7-yl)-N-[(2-oxo-1H-pyridin-3-yl)sulfonyl]-2-[(4S)-2,2,4-trimethylpyrrolidin-1-yl]pyridine-3-carboxamide]
	3000 to 10000	CC1CN(c2ncccc2C(=O)NS(=O)(=O)c2cccc(Oc3ccc(-n4ccnc4)cc3)n2)C(C)(C)C1 (stereo not shown) [Compound 2441, N—[[6-(4-imidazol-1-ylphenoxy)-2-pyridyl]sulfonyl]-2-(2,2,4-trimethylpyrrolidin-1-yl)pyridine-3-carboxamide]
	< 3000	Cc1ccc(CCNc2cccc(S(=O)(=O)NC(=O)c3cccnc3N3CC(C)CC3(C)C)n2)cc1 (stereo not shown) [Compound 2502, N—[[6-[2-(p-tolyl)ethylamino]-2-pyridyl]sulfonyl]-2-(2,2,4-trimethylpyrrolidin-1-yl)pyridine-3-carboxamide]
+++ (“+++” means <3 uM)		CCOC(=O)Cc1ccc(-c2cc(C(=O)NS(=O)(=O)c3ccccc3)n(Cc3c(C)cccc3C)n2)cc1 [Compound 21, ethyl 2-[4-[5-(benzenesulfonylcarbamoyl)-1-[(2,6-dimethylphenyl)methyl]pyrazol-3-yl]phenyl]acetate]
+++ (“+++” means <3 uM)		CC(c1ccccc1)c1nc(C(C)(C)C)ccc1C(=O)NS(=O)(=O)c1cccc(N)c1 (stereo not shown) [Compound 271, N-(3-aminophenyl)sulfonyl-6-tert-butyl-2-(1-phenylethyl)pyridine-3-carboxamide]
	< 3000	CC1CN(c2ncccc2C(=O)NS(=O)(=O)c2cccc(Oc3ccccc3C(C)C)n2)C(C)(C)C1 (stereo not shown) [Compound 2486, N—[[6-(2-isopropylphenoxy)-2-pyridyl]sulfonyl]-2-(2,2,4-trimethylpyrrolidin-1-yl)pyridine-3-carboxamide]
+++ (“+++” means <3 uM)		CCCOc1cc(-c2ccc(C(=O)NS(=O)(=O)c3cccc(N)n3)c(N3CCC(C)CC3)n2)ccc1Cl [Compound 692, N-[(6-amino-2-pyridyl)sulfonyl]-6-(4-chloro-3-propoxy-phenyl)-2-(4-methyl-1-piperidyl)pyridine-3-carboxamide]

SMILES	EC30 [1]	EC30 [2] [nM]
CC(C)COc1cc(F)cc(-c2ccc(C(=O)NS(=O)(=O)c3cccc(N)n3)c(N3CCC[C@@H](C)C3)n2)c1 [Compound 408, N-[(6-amino-2-pyridyl)sulfonyl]-6-(3-fluoro-5-isobutoxy-phenyl)-2-[(3R)-3-methyl-1-piperidyl]pyridine-3-carboxamide]	+++ (“+++” means <3 uM)	
Cc1ccccc1Oc1nc(-c2cc(F)cc(OCC(C)C)c2)ccc1C(=O)NS(=O)(=O)c1ccn[nH]1 [Compound 738, 6-(3-fluoro-5-isobutoxy-phenyl)-2-(2-methylphenoxy)-N-(1H-pyrazol-5-ylsulfonyl)pyridine-3-carboxamide]	+++ (“+++” means <3 uM)	
CC(C)COc1cc(F)cc(-c2ccc(C(=O)NS(=O)(=O)c3cccc(N)n3)c(N3CCC(C(C)(C)C)C3)n2)c1 (stereo not shown) [Compound 611, N-[(6-amino-2-pyridyl)sulfonyl]-2-(3-tert-butylpyrrolidin-1-yl)-6-(3-fluoro-5-isobutoxy-phenyl)pyridine-3-carboxamide]	+++ (“+++” means <3 uM)	
CC(C)COc1cc(F)cc(-c2ccc(C(=O)NS(=O)(=O)c3cccc(N)n3)c(N3CCC(C)CC3(C)C)n2)c1 (stereo not shown) [Compound 2581, N-[(6-amino-2-pyridyl)sulfonyl]-6-(3-fluoro-5-isobutoxy-phenyl)-2-(2,2,4-trimethyl-1-piperidyl)pyridine-3-carboxamide]		< 3000
